Test results reported in patent US6391915B2, “Propanolamine derivatives” (Fujisawa Pharmaceutical Co., Ltd., priority 1997, dated 2002).
pIC50: −log10 of the molar value.

Key:
[1] = tested on: isolated non-pregnant rat uterus; assay: Effect on isolated non-pregnant rat uterus (spontaneous contractions, organ bath); format: cell-based; details: 20 min; female SD rat uterus, estradiol-induced oestrus, Locke solution, 37° C., spontaneous contractions observed over 20 minutes
Protocol: Effect on isolated non-pregnant rat uterus
Female SD rats (150-180 g) were used. 48 and 24 hours prior to use, rats were given estradiol (ovahormon benzoat Trademark, Teikoku Hormone Mfg. Co., Ltd.) subcutaneously at a dose of 40 μg/rat to induce oestrus. The animals were killed and uteri were removed. Each strip was placed in an organ bath containing 25 ml Locke solution aerating with 95% O2, 5% CO2 at 37° C. under 1 g tension. Contractions were recorded isometrically. After the spontaneous contractions were of a uniform size, test compound was added to organ bath. The motility was observed over a 20 minutes period. Effect of test compound was calculated by comparing contractions before and after test compound.

[2] = tested on: isolated rat distal colon; assay: Effect on isolated rat distal colon (spontaneous contractions, organ bath); format: cell-based; details: 0.5 h; male SD rat distal colon strip, Tyrode solution, 37° C., spontaneous contractions observed over 30 minutes
Protocol: Effect on isolated rat distal colon:
Male SD rats (180-230 g) were used. Animals were fasted for 24 hours prior to experiment. Distal colon was removed immediately after sacrifice and placed in an organ bath containing 25 ml Tyrode solution aerating with 95% O2, 5% CO2 at 37° C. The strip was mounted under 0.5 g tension and spontaneous contractions were recorded isometrically. After the mobility was of a uniform size, test compound was added to an organ bath and the contractions were observed over a 30 minutes period. Effect of test compound was calculated by comparing contractions before and after test compound.

Row | SMILES | melting point | pIC50 [1] | pIC50 [2]
1 | CCOC(=O)COc1cccc2c1CCCC(NC[C@H](O)COc1ccccc1)C2.Cl (stereo partly shown) | 43 to 58 °C | – | –
2 | CCOC(=O)COc1cccc2c1CCCC(N(Cc1ccccc1)C[C@H](O)COc1ccccc1)C2 (stereo partly drawn) [Example 1, (2S)-1-[N-benzyl-(1-ethoxycarbonylmethoxy-6,7,8,9-tetrahydro-5H-benzocyclohepten-6-yl)amino]-3-phenoxy-2-propanol] | – | 6.43 | 8.38
3 | O=C([O-])COc1cccc2c1CCCC(NC[C@H](O)COc1ccccc1)C2.[Na+] (stereo partly drawn) [Example 10, sodium [6,7,8,9-tetrahydro-6-[((2S)-2-hydroxy-3-phenoxypropyl)amino]-5H-benzocyclohepten-1-yloxy]acetate] | 65 °C (dec.) | – | –
4 | O=C([O-])COc1ccc2c(c1)CCCC(NC[C@H](O)COc1ccccc1)C2.[Na+] (stereo partly drawn) [Example 11, Sodium [6,7,8,9-tetrahydro-6-[((2S)-2-hydroxy-3-phenoxypropyl)amino]-5H-benzocyclohepten-2-yloxy]acetate] | 166 to 174 °C | – | –

The next lines start with the values.

Row | melting point | pIC50 [1] | pIC50 [2] | SMILES
5 | 122 to 128 °C | – | – | CCOC(=O)COc1ccc2c(c1)CC(NC[C@H](O)COc1ccccc1)CCC2.Cl (stereo partly shown)
6 | 105 to 109 °C | – | – | C=CCOc1ccccc1OCC(O)CN[C@H]1CCc2ccc(OCC(=O)OCC)cc2C1.O=C(O)C(=O)O (stereo partly shown)
